The test system of series [1] is human islets. The experiment in a line: in vitro perifusion, glucagon secretion from human islets. Format: cell-based. The settings on record: for effect on basal glucagon secretion or glucagon responses to glutamate: 100 μM.
Protocol: (§2) A high-capacity, automated perifusion system was developed to dynamically measure hormone secretion from pancreatic islets. A low pulsatility peristaltic pump pushed HEPES-buffered solution (mM: 125 NaCl, 5.9 KCl, 2.56 CaCl2, 1 MgCl2, 25 HEPES, and 0.1% BSA; pH 7.4; and a perifusion rate of 100 μL/min) through a column containing 100 pancreatic islets immobilized in Bio-Gel P-4 Gel (BioRad, Hercules, Calif.). Except otherwise stated, glucose concentration was adjusted to 3 mM for all experiments. Stimuli were applied with the perifusion buffer. The perifusate was collected in an automatic fraction collector designed for a 96 well plate format. The columns containing the islets and the perifusion solutions were kept at 37° C., and the perifusate in the collecting plate was kept at <4° C. Perifusates were collected every minute. Hormone release in the perifusate was determined with the human or mouse Endocrine LINCOplex Kit following manufacturer's instructions (Linco research, St. Charles, Mo.).
In series [2] the test system is mouse islets. The experiment in a line: perifusion, glucagon secretion from mouse islets. Format: cell-based, mouse (C57Bl/6).
Protocol: as §2
In series [3] the test system is monkey islets. Kind of series: in vitro perifusion, insulin release from monkey islets. The note with it: 100 μM; not shown.
Series [4] concerns human islets. The experiment in a line: in vitro perifusion, insulin release from human islets. The settings on record: 100 μM.
Protocol: as §2
The subject of series [5] is C57BL/6 mice. The experiment in a line: in vivo responses to iGluR agonists injected i.p. Also on record: species or system mouse. On the procedure: (§1) We examined in vivo responses to iGluR agonists by injecting C57BL/6 mice i.p. with either PBS (n=4), monosodium glutamate (30 mg/kg; n=7), or AMPA (15 mg/kg; n=8). To determine whether blocking iGluRs exacerbates insulin-induced hypoglycemia, we injected the AMPA/kainate iGluR antagonist NBQX (Tocris, Ellisville, Mo.) i.p. at 20 mg/kg 30 minutes before mice were treated with insulin to induce hypoglycemia.

The test system of series [6] is monkey islets and dispersed single islet cells. The experiment in a line: [Ca^2+]i imaging (Fura-2) of monkey islets and islet cells. The series is classed as cell-based, monkey (Macacca fascicularis). The note with it: nifedipine 10 μM; for inhibition of [Ca^2+]i responses to kainate: CNQX 10 μM, La^3+ 30 μM. On the procedure: Imaging of [Ca^2+]i was performed as described elsewhere (Cabrera et al., 2006). […] Glucose was added to give a final concentration of 3 mM. Islets or dispersed islet cells were incubated in Fura-2 AM (2 μM; 1 hour) and placed in a closed small-volume imaging chamber (Warner Instruments, Hamden, Conn.). Stimuli were applied with the bathing solution. Islets loaded with Fura-2 were excited alternatively at 340 and 380 nm with a monochromator light source (Cairn. Research Optoscan Monochromator, Cairn Research Ltd, Faversham, UK). Images were acquired with a Hamamatsu camera (Hamamatsu Corp, Japan) attached to a Zeiss Axiovert 200 microscope (Carl Zeiss, Jena, Germany). Changes in the 340/380 fluorescence emission ratio over time were analyzed in individual islets and dispersed cells using Kinetic Imaging AQM Advance software (Kinetic Imaging, N.C.). Peak changes in the fluorescence ratio constituted the response amplitude.

Series [7] concerns human islets. Format: cell-based. The note with it: CNQX 10 μM; measured at 8 minutes after reducing glucose. On the procedure: Perifusion of the islets was stopped after addition of the stimulus to allow the islet secretory products to accumulate and then resumed after 10 minutes.
Series [8] concerns human islets and dispersed single islet cells. The experiment in a line: [Ca^2+]i imaging (Fura-2) of human islets and dispersed islet cells. The series is classed as cell-based. The settings on record: CNQX 10 μM. How it is done: Glucose was added to give a final concentration of 3 mM. Islets or dispersed islet cells were incubated in Fura-2 AM (2 μM; 1 hour) and placed in a closed small-volume imaging chamber (Warner Instruments, Hamden, Conn.). Stimuli were applied with the bathing solution. Islets loaded with Fura-2 were excited alternatively at 340 and 380 nm with a monochromator light source (Cairn. Research Optoscan Monochromator, Cairn Research Ltd, Faversham, UK). Images were acquired with a Hamamatsu camera (Hamamatsu Corp, Japan) attached to a Zeiss Axiovert 200 microscope (Carl Zeiss, Jena, Germany). Changes in the 340/380 fluorescence emission ratio over time were analyzed in individual islets and dispersed cells using Kinetic Imaging AQM Advance software (Kinetic Imaging, N.C.). Peak changes in the fluorescence ratio constituted the response amplitude.

Series [9] concerns monkey islets. Kind of series: microfluorometric determination of endogenous glutamate release from islets. The series is classed as cell-based. The settings on record: kainate 100 μM; KCl 30 mM. How it is done:
Endogenous glutamate release from pancreatic islets was measured with the Amplex Red Glutamic Acid Assay Kit (Molecular Probes) adapted for microscopic microfluorometric detection (Akagi et al., 2003). In this assay, released glutamate is a substrate in an enzymatic chain reaction that generates the highly fluorescent product resorufin (Molecular Probes, Eugene, Oreg.). L-glutamate is oxidized by glutamate oxidase to produce α-ketoglutarate, NH4, and H2O2. Hydrogen peroxide reacts with the Amplex Red reagent in a reaction catalyzed by horseradish peroxidase to generate resorufin. Pancreatic islets were allowed to attach to a glass coverslip previously coated with poly-D-lysine. The coverslip was mounted in a closed small-volume imaging chamber (Warner Instruments) and perifused with the HEPES-buffered solution containing the stimuli. Resorufin fluorescence was excited at 510 nm, and the emission recorded at 590 nm using the same imaging system used to measure [Ca^2+]i (see above).

Series [10] deals with isolated human islet cells. Kind of series: whole-cell patch clamp recordings of dispersed human islet cells. Format: cell-based. The note with it: NBQX 10 μM; kainate 100 μM. How it is done:
Membrane currents were measured using whole-cell patch clamp recordings of dispersed human islet cells. All recordings were amplified using an EPC10 patch-clamp amplifier and digitized and analyzed using Patchmaster software (Heka Elektronik, Lambrecht, Germany). Pipettes were pulled from borosilicate glass capillaries on a horizontal programmable puller (DMZ Universal Puller, Zeitz-Instrumente, Augsburg, Germany). Pipettes with a resistance of 5-7 MΩ were filled with a pipette solution containing (in mM): 150 NMG (N-methyl-D-Glucamine), 10 EGTA, 1 MgCl2, 2 CaCl2, 5 HEPES and 3 Mg-ATP (pH 7.15). The bath solution contained (in mM): 138 NaCl, 5.6 KCl, 1.2 MgCl2, 2.6 CaCl2, 5 HEPES and 10 TEA (pH7.4). Cells were voltage-clamped at −70 mV. Ligands (e.g. kainate) were applied using the SF-77B Perfusion Fast-Step system (Warner Instruments, Hamden, Conn.), which allows rapid change of solutions bathing a single cell or membrane patch attached to a patch electrode. […] Thus, it is most likely that cells responding to kainate in our electrophysiological experiments were α-cells.
Background: Patch clamp records ionic current or voltage across a cell membrane.

Series [11] deals with mice. Kind of series: hyperinsulinemic-hypoglycemic clamp in conscious mice. The settings on record: NBQX 10 mg/kg iv versus saline. Format: in vivo, mouse. On the procedure:
To provide a standardized hypoglycemic stimulus we further conducted studies using the hyperinsulinemic-hypoglycemic clamp. At least 4 days before the experiments, mice were anesthetized with isoflurane, and an indwelling catheter was inserted in the left jugular vein and externalized through an incision in a skin flap behind the head. Mice were fasted for 4 hours and placed in individual plastic containers for tail cut sampling. […] A priming dose of insulin (100 mU/kg) was administered, followed by a constant infusion rate of 20 mU/kg/min (Actrapid, Novo Nordisk). The plasma glucose concentration was determined at 10 min intervals using a One Touch Ultra glucose meter. Glucose (30%) was infused at a variable rate to maintain the plasma glucose concentration at the hypoglycemic levels (˜3 mM). At time 50 min, a hyperinsulinemic-hypoglycemic clamp was achieved. Blood glucose levels were kept at the steady state (3 mM) and NBQX was administered as a bolus (10 mg/kg) at time 60 min, followed by infusion (10 mg/kg) until the end of the experiment. A control experiment was performed using saline (0.9% NaCl) following the same protocol used for NBQX. […] Animals were euthanized by an over-dose of pentobarbital.

For series [12], the system named is mice. The series is classed as in vivo, mouse. The settings on record: NBQX 20 mg/kg i.p. How it is done: as §1
In initial experiments, mice were injected with insulin (1.5 U/kg; i.p.) to induce hypoglycemia.

In series [13] the test system is mouse islets. Kind of series: perifusion of mouse islets with β cells destroyed by streptozotocin versus intact islets. The series is classed as cell-based. The note with it: arginine 5 mM; streptozotocin-treated versus intact islets. How it is done: This experiment was performed with mouse islets. Two samples were perifused in parallel (“a” and “b”). In “a” (blue curve and blue bar), but not in “b” (red curve and red bar) the β cells were selectively destroyed with streptozotocin. This absence of β cells generates type 1 diabetes-like condition in vitro. The glucagon release profile in panel “A” was obtained by using this model. […] Note that the non specific stimulus arginine is not able to differentiate a functionally impaired α cell in the absence of β cells.
At t=5 min, both samples were stimulated with 100 μM kainate for 5 min. The glucose was increased to 11 mM for 10 minutes and decreased again to 3 mM for the duration of the perifusion. At t=45 min, both samples (v) were stimulated with 5 mM Arginine. […] Kainate is a glutamate analog that is not metabolizable, and therefore a preferred agonist of the AMPA/Kainate receptors. Error bars represent the standards deviations for n=3 perifusions. Comparison were performed by an independent t-test.
For example, in some embodiments the present invention are directed to an in vitro model in which we destroy selectively the beta cells with, for example, streptozotocin, thus creating a situation that mimics type 1 diabetes. The treated islets are composed mainly of alpha cells. […] To examine if alpha cells in islets depleted of beta cells had impaired glutamate signaling, we stimulated them with kainate, an agonist for ionotropic glutamate receptors.

“Also recorded” adds a separate entry of the source.

For `NC1(C(=O)O)C[C@H](C(=O)O)[C@H](C(=O)O)C1` (stereo partly shown) [ACPT-1], the “effect on basal glucagon secretion or glucagon responses to glutamate” value (shortened to “effect … to glutamate”) in series [1] was “did not elicit changes in glucagon secretion; also recorded: did not affect basal glucagon secretion or glucagon responses to glutamate”. For the same compound, in series [2] (100 μM), the “effect on basal or glutamate-induced glucagon secretion” value is recorded as “did not affect basal or glutamate-induced glucagon secretion; also recorded: did not elicit changes in glucagon secretion”.
Consider `Cc1o[nH]c(=O)c1CC(N)C(=O)O` (stereo not shown) [AMPA], for which the insulin release result is “Neither kainate (100 μM), glutamate (100 μM), nor AMPA (100 μM) stimulated increases in insulin release” in series [3] and “Neither kainate (100 μM), glutamate (100 μM), nor AMPA (100 μM) stimulated increases in insulin release” in series [4]. Moreover, the “glucagon release / glucagon secretion” value in [1] (agonist 100 μM, 3 mM glucose) is “elicited strong glucagon secretion; also recorded: Increases in glucagon release could also be elicited”. In addition, in [5] (AMPA 15 mg/kg i.p.), the “convulsions indicative of central nervous penetration” value is “did not induce convulsions”. Further, the plasma insulin concentrations entry in series [5] (glutamate 30 mg/kg, AMPA 15 mg/kg, i.p.) is recorded as “not affected; also recorded: did not change”. In series [5] (glutamate 30 mg/kg, AMPA 15 mg/kg, i.p., 30 minutes after treatment), the plasma glucagon concentrations entry is listed as “increased plasma glucagon concentrations”. Further, the plasma glucose concentrations result in [5] (glutamate 30 mg/kg, AMPA 15 mg/kg, i.p., thirty minutes after injection) is recorded as “increased glucose levels; also recorded: increased plasma glucose concentrations”. For the same compound, the “glucagon release / secretion” value in series [2] (100 μM) is “stimulated glucagon secretion”.
Take `N#Cc1cc2[nH]c(=O)c(=O)[nH]c2cc1[N+](=O)[O-]` [CNQX]: the “block of glutamate-induced glucagon responses” value in series [1] (CNQX 10 μM) is reported as “could be blocked”. Moreover, the “inhibition of [Ca^2+]i responses to kainate” value in series [6] is “inhibited; also recorded: blocked”. For the same compound, in series [7], the “inhibition of glucagon response to lowering glucose from 6 mM to 1 mM” value was determined as 54%. The “block of [Ca^2+]i responses to glutamate” value in series [8] is “could be blocked”.
Consider `NC(C(=O)O)(c1ccc(P(=O)(O)O)cc1)C1CC1` (stereo not shown) [CPPG], for which, in series [1], the “effect … to glutamate” value is “did not affect the glutamate-induced glucagon response; also recorded: did not affect basal glucagon secretion or glucagon responses to glutamate”. The “effect on basal or glutamate-induced glucagon secretion” value in [2] (100 μM) is “did not affect basal or glutamate-induced glucagon secretion; also recorded: did not affect the glutamate-induced glucagon response”.
Turning to `O=[N+]([O-])c1cc2nc(O)c(O)nc2cc1[N+](=O)[O-]` [DNQX], the “block of glutamate-stimulated glucagon release” value in [2] (DNQX 10 μM, glutamate 100 μM) was “blocked”.
On to `[Cl-].[K+]` [KCl], for which the “glutamate release (resorufin fluorescence)” value in [9] was “induced significant glutamate release; also recorded: elicited large increases in glutamate release”.
In the case of `[La+3]` [La^3+], in series [1], the “kainate-stimulated glucagon secretion in presence of Ca^2+ channel blockers” value is recorded as “strongly diminished”. For the same compound, the “inhibition of [Ca^2+]i responses to kainate” value in [6] was “inhibited; also recorded: abolished”.
`NS(=O)(=O)c1cccc2c1c([N+](=O)[O-])cc1nc(O)c(O)nc12` [NBQX]: the “block of kainate-evoked inward currents” value in series [10] is on record as “could be blocked”. Also, in series [11], the “glucose infusion rate needed to maintain glycemia (~3 mM)” value is recorded as “needed larger infusion rates of glucose; also recorded: significantly larger” and the “plasma glucagon / glucagon secretion in response to hypoglycemia” value was “lower; also recorded: significantly diminished”. The sedation entry in [12] is “did not cause sedation”. For the same compound, the “insulin-induced drop in glucose plasma levels” value in [12] (insulin 1.5 U/kg i.p., not shown) is recorded as “increased the insulin-induced drop in glucose plasma levels”.
Take `N=C(N)NCCC[C@H](N)C(=O)O` [arginine]: the “arginine-induced glucagon release in absence versus presence of β cells” value in series [13] is recorded as “not statistically different”.
For `COC(=O)C1=C(C)NC(C)=C(C(=O)OC)C1c1ccccc1[N+](=O)[O-]` [nifedipine], the “reduction of kainate-induced [Ca^2+]i responses” value in series [6] is about 60%.
Turning to `N[C@@]1(C(=O)O)CC[C@@H](C(=O)O)C1` [trans-ACPD], the “effect … to glutamate” value in [1] is “did not affect basal glucagon secretion or glucagon responses to glutamate”; in [1] (listed as tACPD) it was “did not elicit changes in glucagon secretion”. The “effect on basal or glutamate-induced glucagon secretion” value in series [2] (100 μM) is recorded as “did not affect basal or glutamate-induced glucagon secretion”; in [2] (100 μM, listed as tACPD), “did not elicit changes in glucagon secretion”.

The values above are taken from patent US8466185B2, “Methods and assays for detecting and treating hypoglycemia” (priority 2008, dated 2013).
